Measured values published in patent US20100047844A1, “DIAGNOSTIC MARKER FOR FABRY DISEASE” (Academisch Ziekenhuis bij de Universiteit van Amsterdam, priority 2006, published 2010).
“Also recorded” adds a separate entry of the source.

Key:
alpha-galactosidase A = molecular target: T1, alpha-galactosidase A (Homo sapiens, UniProt P06280); test: Inhibition of alpha-galactosidase A by lyso-CTH; format: biochemical
T1 sequence (P06280 32-429): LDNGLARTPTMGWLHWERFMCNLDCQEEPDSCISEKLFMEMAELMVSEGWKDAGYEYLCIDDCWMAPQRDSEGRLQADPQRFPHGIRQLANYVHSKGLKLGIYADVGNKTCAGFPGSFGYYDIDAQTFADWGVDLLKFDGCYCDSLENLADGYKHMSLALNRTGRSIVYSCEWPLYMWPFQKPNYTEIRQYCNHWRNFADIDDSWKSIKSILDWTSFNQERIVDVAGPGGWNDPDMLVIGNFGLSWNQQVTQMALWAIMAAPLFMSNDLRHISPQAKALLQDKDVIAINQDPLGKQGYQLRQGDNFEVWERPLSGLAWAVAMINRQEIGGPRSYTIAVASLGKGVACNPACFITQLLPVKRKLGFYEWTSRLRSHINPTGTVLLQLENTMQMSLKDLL

alpha-galactosidase B = molecular target: T2, alpha-galactosidase B (Homo sapiens, UniProt P17050); test: Inhibition of alpha-galactosidase B by lyso-CTH; format: biochemical
T2 sequence (P17050 18-411): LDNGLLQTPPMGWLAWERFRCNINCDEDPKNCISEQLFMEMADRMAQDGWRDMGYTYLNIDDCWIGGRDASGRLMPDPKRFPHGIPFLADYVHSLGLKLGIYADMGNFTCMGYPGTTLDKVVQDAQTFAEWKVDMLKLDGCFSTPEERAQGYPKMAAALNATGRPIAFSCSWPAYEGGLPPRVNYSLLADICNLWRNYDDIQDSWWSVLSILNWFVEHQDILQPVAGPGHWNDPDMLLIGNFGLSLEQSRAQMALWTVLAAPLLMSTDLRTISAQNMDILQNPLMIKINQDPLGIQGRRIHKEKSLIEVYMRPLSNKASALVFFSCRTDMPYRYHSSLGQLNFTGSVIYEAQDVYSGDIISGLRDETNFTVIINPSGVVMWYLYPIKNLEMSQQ

SMC-41 cell line = test: In vitro toxicity: 3H thymidine incorporation and proliferation in SMC-41 cell line; format: cell-based; conditions: lyso-CTH 0.065-0.65 μM, as found in plasma of Fabry patients
Description: The toxic effect of lyso-CTH was determined in vitro in SMC-41 cell line. ^3H thymidine incorporation (per 24 h) was determined as a function of lyso-CTH concentration.

[1] = Partitioning of lyso-CTH in extraction from plasma samples; format: physicochemical
Description: An optimal extraction procedure for lyso-CTH from plasma samples was established. A double extraction was carried out, first a Bligh and Dyer extraction followed by butanol extraction.

Structure (SMILES): CCCCCCCCCCCCC/C=C/[C@@H](O)[C@@H](N)CO[C@@H]1O[C@H](CO)[C@@H](O[C@@H]2O[C@H](CO)[C@H](O[C@H]3O[C@H](CO)[C@H](O)[C@H](O)[C@H]3O)[C@H](O)[C@H]2O)[C@H](O)[C@H]1O [lyso-CTH, lyso-ceramide trihexosamide]
- inhibition of alpha-galactosidase A (alpha-galactosidase A): potent inhibitor; also recorded: inhibits
- inhibition of alpha-galactosidase B (alpha-galactosidase B): potent inhibitor; also recorded: inhibits
- 3H thymidine incorporation (per 24 h) (SMC-41 cell line): increased isotope incorporation
- smooth muscle cell proliferation (SMC-41 cell line): promote in vitro smooth muscle cell proliferation; also recorded: increased proliferation
- Partitioning of lyso-CTH (% of total), lower phase ([1]; Bligh and Dyer extraction): 10 % of total
- Partitioning of lyso-CTH (% of total), upper phase ([1]; Bligh and Dyer extraction): 90 % of total
- Partitioning of lyso-CTH (% of total), lower phase ([1]; butanol/water extraction): 2 % of total
- Partitioning of lyso-CTH (% of total), upper phase ([1]; butanol/water extraction): 99 % of total
